Laboratory results taken from patent publication US5721207A, “Method for treatment of pain” (Innapharma, Inc., priority 1995, dated 1998).
Where two headings read alike, the source gives them in different places.

Key:
[1] = system: rat; assay: Rat hot plate analgesiometric test, dose response of single intrathecal elcatonin (Example 8); assay type: in vivo
Protocol: The doses tested were 0.2, 0.8, 1.6, 2.4, and 3.6 IU/kg. The desired dose was injected in a volume of 37.5 μL/kg, followed by a catheter wash-out with 10 μL saline, via the intrathecal route.
A total of 113 adult male rats, of weights of 350 g to 400 g, were used. Intrathecal catheters were surgically implanted as described in Example 4.
Data were analyzed for statistical significance, and a point estimate (mean and standard deviation) are used to analyze analgesic activity for each dose of the drug for a selected time period. Nonparametric statistics were calculated to address the level of significance of any difference between control and test group.

[2] = system: rat
Protocol: Intrathecal catheters were surgically implanted in the rats after application of anesthetic (Nembutal, 30 mg/kg, intraperitoneal) 5-7 days prior to the test procedure. The 5-7 day period prior to testing allowed for full recovery from the surgical procedures. […] Each catheter was anchored to the skull with cyanoacrylate adhesive, and the skull was closed with wound clips. The free end of each catheter was heat annealed; when compositions were to be injected via the intrathecal route each composition was introduced therein using a Hamilton needle inserted into the sealed catheter.
Pain sensitivity was assessed using a standard analgesiometric hot plate test (Woolfe and MacDonald (1944) J. Pharmacol. Exp. Ther. 80:300). The hot plate response was determined by placing a rat on a 55° C. copper hot plate enclosed in a plexiglass cylinder.
Because of the technical demands of these experiments, no more than 8-9 rats were tested on a given day. Sufficient animals were studied to obtain 10-11 evaluable rats per test condition. On the study day, animals were tested for baseline hot plate responses, and then received bolus injections of test analgesic or physiological saline (control). Hot plate responses were assessed again at 15 min, 30 min, 1 hr, 3 hr, 6 hr and 24 hr after intrathecal injection of test compound or vehicle control.
Ninety-six (96) rats, ranging in weight from 320 g to 420 g, were used in this study. Catheters were implanted and recovery was allowed for as described hereinabove. […] Drug or saline vehicle doses were administered using Hamilton needles inserted into the catheters, with a dose volumes of 37.5 μL/kg followed by a 10 μL saline catheter wash-out. Baseline (pre-drug) and responses at 15 min, 30 min, 1 hr, 3 hr, 6 hr and 24 hr after drug or vehicle injection were determined.

Substance: [Des-Cys^1,ASU^7 ]-Calcitonin, Eel [Elcatonin]
- antinociceptive response (statistics) ([1]; 0.2 IU/kg intrathecal (lowest dose tested)): did not produce a statistically significant response
- Hot Plate Latency (Mean ± SEM) ([1]; 0.2 IU/kg intrathecal single, 0 hr (baseline)): 10.6 ± 0.8 s
- Hot Plate Latency (Mean ± SEM) ([1]; 0.2 IU/kg intrathecal single, 0.25 hr after administration): 13.0 ± 1.1 s
- Hot Plate Latency (Mean ± SEM) ([1]; 0.2 IU/kg intrathecal single, 0.5 hr after administration): 12.9 ± 0.7 s
- Hot Plate Latency (Mean ± SEM) ([1]; 0.2 IU/kg intrathecal single, 1 hr after administration): 12.7 ± 0.9 s
- Hot Plate Latency (Mean ± SEM) ([1]; 0.2 IU/kg intrathecal single, 3 hr after administration): 13.1 ± 0.7 s
- Hot Plate Latency (Mean ± SEM) ([1]; 0.2 IU/kg intrathecal single, 6 hr after administration): 12.1 ± 0.5 s
- Hot Plate Latency (Mean ± SEM) ([1]; 0.2 IU/kg intrathecal single, 24 hr after administration): 10.8 ± 0.7 s
- Hot Plate Latency (Mean ± SEM) ([1]; 0.8 IU/kg intrathecal single, 0 hr (baseline)): 9.8 ± 0.8 s
- Hot Plate Latency (Mean ± SEM) ([1]; 0.8 IU/kg intrathecal single, 0.25 hr after administration): 15.1 ± 1.5 s
- Hot Plate Latency (Mean ± SEM) ([1]; 0.8 IU/kg intrathecal single, 0.5 hr after administration): 15.0 ± 1.5 s
- Hot Plate Latency (Mean ± SEM) ([1]; 0.8 IU/kg intrathecal single, 1 hr after administration): 15.2 ± 1.3 s
- Hot Plate Latency (Mean ± SEM) ([1]; 0.8 IU/kg intrathecal single, 3 hr after administration): 20.0 ± 2.8 s
- Hot Plate Latency (Mean ± SEM) ([1]; 0.8 IU/kg intrathecal single, 6 hr after administration): 12.3 ± 1.0 s
- Hot Plate Latency (Mean ± SEM) ([1]; 0.8 IU/kg intrathecal single, 24 hr after administration): 11.7 ± 1.0 s
- antinociceptive response (statistics) ([1]; 0.8 and 1.6 IU/kg intrathecal): significant antinociception
- Hot Plate Latency (Mean ± SEM) ([1]; 1.6 IU/kg intrathecal single, 0 hr (baseline)): 9.2 ± 0.5 s
- Hot Plate Latency (Mean ± SEM) ([1]; 1.6 IU/kg intrathecal single, 0.25 hr after administration): 16.4 ± 1.2 s
- Hot Plate Latency (Mean ± SEM) ([1]; 1.6 IU/kg intrathecal single, 0.5 hr after administration): 16.0 ± 1.0 s
- Hot Plate Latency (Mean ± SEM) ([1]; 1.6 IU/kg intrathecal single, 1 hr after administration): 16.4 ± 1.1 s
- Hot Plate Latency (Mean ± SEM) ([1]; 1.6 IU/kg intrathecal single, 3 hr after administration): 15.1 ± 0.9 s
- Hot Plate Latency (Mean ± SEM) ([1]; 1.6 IU/kg intrathecal single, 6 hr after administration): 13.6 ± 0.8 s
- Hot Plate Latency (Mean ± SEM) ([1]; 1.6 IU/kg intrathecal single, 24 hr after administration): 10.9 ± 0.4 s
- Hot Plate Latency (Mean ± SEM) ([1]; 2.4 IU/kg intrathecal single, 0 hr (baseline)): 9.0 ± 0.7 s
- Hot Plate Latency (Mean ± SEM) ([1]; 2.4 IU/kg intrathecal single, 0.25 hr after administration): 20.0 ± 1.5 s
- Hot Plate Latency (Mean ± SEM) ([1]; 2.4 IU/kg intrathecal single, 0.5 hr after administration): 20.1 ± 1.9 s
- Hot Plate Latency (Mean ± SEM) ([1]; 2.4 IU/kg intrathecal single, 1 hr after administration): 19.5 ± 1.8 s
- Hot Plate Latency (Mean ± SEM) ([1]; 2.4 IU/kg intrathecal single, 3 hr after administration): 21.8 ± 2.1 s
- Hot Plate Latency (Mean ± SEM) ([1]; 2.4 IU/kg intrathecal single, 6 hr after administration): 12.6 ± 1.2 s
- Hot Plate Latency (Mean ± SEM) ([1]; 2.4 IU/kg intrathecal single, 24 hr after administration): 10.3 ± 1.2 s
- antinociceptive response (statistics) ([1]; 2.4 and 3.6 IU/kg intrathecal): strong antinociception
- Hot Plate Latency (Mean ± SEM) ([1]; 3.6 IU/kg intrathecal single, 0 hr (baseline)): 10.4 ± 0.9 s
- Hot Plate Latency (Mean ± SEM) ([1]; 3.6 IU/kg intrathecal single, 0.25 hr after administration): 19.4 ± 1.6 s
- Hot Plate Latency (Mean ± SEM) ([1]; 3.6 IU/kg intrathecal single, 0.5 hr after administration): 21.4 ± 1.8 s
- Hot Plate Latency (Mean ± SEM) ([1]; 3.6 IU/kg intrathecal single, 1 hr after administration): 23.5 ± 2.5 s
- Hot Plate Latency (Mean ± SEM) ([1]; 3.6 IU/kg intrathecal single, 3 hr after administration): 19.5 ± 1.0 s
- Hot Plate Latency (Mean ± SEM) ([1]; 3.6 IU/kg intrathecal single, 6 hr after administration): 15.7 ± 1.3 s
- Hot Plate Latency (Mean ± SEM) ([1]; 3.6 IU/kg intrathecal single, 24 hr after administration): 10.2 ± 1.0 s
- dose relation of hot plate latencies ([1]; intrathecal, 0.2-3.6 IU/kg): increased hot plate latencies in a dose-related fashion
- onset of antinociception after injection ([1]; intrathecal, 0.2-3.6 IU/kg): ≤ 15 min
- duration of antinociception post-injection ([1]; intrathecal, all doses used): at least 6 hours
- time of peak antinociception ([1]; intrathecal, all doses used): 30 to 60 min
- hot plate latency by 24 hr post-injection ([1]; intrathecal, most tests): returned to baseline
- antinociception at 6 hrs after injection ([1]; intrathecal, three higher doses): Significant antinociception was also apparent
- antinociceptive results, intrathecal compared with intravenous ([1]; rat hot plate): unexpectedly improved antinociceptive results as compared with intravenous injection
- Hot Plate Latency (Mean ± SEM) ([2]; 2.4 IU/kg (0.39 μg/kg, 0.12 nmol/kg) intrathecal single, 0 hr (baseline)): 13.54 ± 1.91 s
- Hot Plate Latency (Mean ± SEM) ([2]; 2.4 IU/kg (0.39 μg/kg, 0.12 nmol/kg) intrathecal single, 0.25 hr): 19.70 ± 1.75 s
- Hot Plate Latency (Mean ± SEM) ([2]; 2.4 IU/kg (0.39 μg/kg, 0.12 nmol/kg) intrathecal single, 0.5 hr): 23.90 ± 3.12 s
- Hot Plate Latency (Mean ± SEM) ([2]; 2.4 IU/kg (0.39 μg/kg, 0.12 nmol/kg) intrathecal single, 1 hr): 24.68 ± 1.80 s
- Hot Plate Latency (Mean ± SEM) ([2]; 2.4 IU/kg (0.39 μg/kg, 0.12 nmol/kg) intrathecal single, 3 hr): 13.0 ± 0.7 s
- Hot Plate Latency (Mean ± SEM) ([2]; 2.4 IU/kg (0.39 μg/kg, 0.12 nmol/kg) intrathecal single, 6 hr): 12.1 s
- Hot Plate Latency (Mean ± SEM) ([2]; 2.4 IU/kg (0.39 μg/kg, 0.12 nmol/kg) intrathecal single, 24 hr): 10.8 ± 0.7 s
- response at the lowest dose ([2]; 2.4 IU/kg or 0.39 μg/kg intrathecal): slightly smaller response
- differences in hot plate latencies between doses ([2]; 3.6-6.0 IU/kg intrathecal): no apparent differences in hot plate latencies
- Hot Plate Latency (Mean ± SEM) ([2]; 3.6 IU/kg (0.58 μg/kg, 0.18 nmol/kg) intrathecal single, 0 hr (baseline)): 12.92 ± 1.4 s
- Hot Plate Latency (Mean ± SEM) ([2]; 3.6 IU/kg (0.58 μg/kg, 0.18 nmol/kg) intrathecal single, 0.25 hr): 21.04 ± 2.22 s
- Hot Plate Latency (Mean ± SEM) ([2]; 3.6 IU/kg (0.58 μg/kg, 0.18 nmol/kg) intrathecal single, 0.5 hr): 26.03 ± 3.08 s
- Hot Plate Latency (Mean ± SEM) ([2]; 3.6 IU/kg (0.58 μg/kg, 0.18 nmol/kg) intrathecal single, 1 hr): 26.08 ± 3.69 s
- Hot Plate Latency (Mean ± SEM) ([2]; 3.6 IU/kg (0.58 μg/kg, 0.18 nmol/kg) intrathecal single, 3 hr): 23.14 ± 3.05 s
- Hot Plate Latency (Mean ± SEM) ([2]; 3.6 IU/kg (0.58 μg/kg, 0.18 nmol/kg) intrathecal single, 6 hr): 20.37 s
- Hot Plate Latency (Mean ± SEM) ([2]; 3.6 IU/kg (0.58 μg/kg, 0.18 nmol/kg) intrathecal single, 24 hr): 15.79 ± 2.40 s
- Hot Plate Latency (Mean ± SEM) ([2]; 4.4 IU/kg ([…], 0.22 nmol/kg) intrathecal single, 0 hr (baseline)): 13.68 ± 1.10 s
